Reference: patent US8653304B2, “2,3-dihydro-1H-indene-2-yl urea derivative and pharmaceutical application of same” (Toray Industries, Inc., priority 2009, dated 2014)

Tests used:
[1] = system: skin swelling response in type IV allergic dermatitis model; assay: Skin swelling response in type IV allergic dermatitis model; format: in vivo; conditions: BALB/c mouse, 24 hours after induction
Procedure: The action of Compound (I) on skin swelling response in mouse allergic dermatitis models was studied. As the allergic dermatitis models, models partially modified from a type I allergic dermatitis model and a type IV allergic dermatitis model described in documents (Inflamm. Res., 1998, Vol. 47, pp. 506-511 and Int. Arch. Allergy. Appl. Immunol., 1990, Vol. 92, pp. 356-360) were used.
To the back of each BALB/c mouse (female, 7-week old, Charles River Laboratories Japan, Inc.), 25 μL of 0.5% DNFB solution dissolved in acetone:olive oil (4:1) was applied. On the next day, the same operations were repeated to actively sensitize the mouse. Four days after the sensitization, 20 μL of 0.2% DNFB solution dissolved in acetone:olive oil (4:1) was applied to the auricle of the sensitized mouse to induce inflammation. Twenty four hours after the induction, the thickness of the auricle was measured using a Digimatic Indicator (Mitutoyo). Each test compound was dissolved in ethanol and 20 μL of 0.5 w/v % solution was applied to the auricle at 1 hour before the induction; or each test compound was suspended in 0.5% methylcellulose (Wako Pure Chemical Industries, Ltd.) and the resulting solution was orally administered at 30 mg/kg at 1 hour before the induction. The swelling ratio of the auricle was calculated according to the following equation: Auricular Swelling Ratio(%)=(A−B)/B×100

[2] = system: hyperalgesia in Bennett model; assay: Hyperalgesia in neuropathic pain model (Bennett model), plantar test; format: in vivo; conditions: SD rat, Bennett model day 14, oral 100 mg/kg, 90 minutes after administration; FIG. 2
Text: (§1) The action of Compound (I) on hyperalgesia in pain models was studied. As the pain models, models partially modified from an inflammatory pain model (a carrageenin paw edema pain model) and neuropathic pain models (Bennett model and Chung model) described in documents (Anesth. Analg., 2009, Vol. 108, pp. 1680-1687; Pain, 1988, Vol. 33, pp. 87-107; and Pain, 1992, Vol. 50, pp. 355-363) were used.
(§2) The Bennett model was produced by lightly ligating the sciatic nerve in the left thigh of each Crl:CD (SD) rat (male, 6-week old, Charles River Laboratories Japan, Inc.) at 4 points with chromic catgut (4-0). Fourteen days after the Bennett model was produced, each test compound was orally administered, and plantar test was performed 90 minutes after the administration. The plantar test was carried out by measuring the pain threshold (sec) of the left footpad (model foot) using a plantar thermal stimulation device (Plantar test 7370, Ugo Basile) wherein the thermal stimulus intensity was set to 60. Each test compound was suspended in 0.5 w/v % methylcellulose (Wako Pure Chemical Industries, Ltd.) and the obtained solution was orally administered. Compound 46b described in the Examples was administered at a dose of 100 mg/kg, and gabapentin (Toronto Research Chemicals), which is an anticonvulsant, was administered as a comparative control agent at a dose of 100 mg/kg.

human p38 MAPK α = human p38 MAPK α (Homo sapiens (Human), UniProt Q16539); assay: Evaluation of p38 MAPK inhibitory activity (Alpha Screen, ATF2 phosphorylation); format: biochemical; conditions: p38α/SAPK2a 1.5 nM, ATP 100 μM, biotinylated ATF2 30 nM
Procedure: Using human p38 MAPK α, the p38 MAPK inhibitory activity of Compound (I) was studied by a method partially modified from the method described in Current Medicinal Chemistry (2004, No. 11, pp. 721-730).
A solution of each test compound solution in 100% DMSO and a p38α/SAPK2a solution (Final Concentration: 1.5 nM) (Invitrogen) were added to a 384-well plate, and then the plate was incubated at room temperature in a dark place for 1 hour. Thereafter, ATP (Final Concentration: 100 μM), which is a phosphate donor, and biotinylated ATF2 (Final Concentration: 30 nM) (upstate), which is a substrate, were added, and the resulting mixture was allowed to react at room temperature in a dark place for 1 hour (the final concentration of DMSO was 0.25%). After the reaction, an anti-phosphorylated ATF2 antibody (Final Concentration: 1 nM) (Cell Signaling), anti-IgG acceptor beads (Final Concentration: 20 μg/mL) (PerkinElmer) and streptavidin donor beads (Final Concentration: 20 μg/mL) (PerkinElmer) were added, and the resultant was incubated at room temperature in a dark place for 1 hour. Using a microplate analyzer (Fusion-α, Packard) in Alpha Screen method (Amplified Luminescent Proximity Homogeneous Assay), the light emission was detected. The IC50 value of each compound was calculated by sigmoidal dose-response regression using Prism 4.02 (GraphPad Software, Inc.).

[3] = system: hyperalgesia in Chung model; assay: Hyperalgesia in neuropathic pain model (Chung model), plantar test; format: in vivo; conditions: SD rat, Chung model day 15, oral 100 mg/kg, 90 minutes after administration; FIG. 3
Text: as §1
as §2, with “mg/kg. […]” for “mg/kg.”

human p38 MAPK α, sequence (Q16539 whole entry): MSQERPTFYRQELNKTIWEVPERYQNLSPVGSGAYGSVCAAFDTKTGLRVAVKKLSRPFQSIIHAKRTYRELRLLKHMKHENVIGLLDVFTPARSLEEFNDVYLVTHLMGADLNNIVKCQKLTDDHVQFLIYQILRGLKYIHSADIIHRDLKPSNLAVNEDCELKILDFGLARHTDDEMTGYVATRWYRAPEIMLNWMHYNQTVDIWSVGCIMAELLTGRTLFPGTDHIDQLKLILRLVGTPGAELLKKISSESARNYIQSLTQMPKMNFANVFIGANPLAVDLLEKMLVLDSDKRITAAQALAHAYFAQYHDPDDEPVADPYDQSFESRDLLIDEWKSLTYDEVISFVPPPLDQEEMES

IC50 (human p38 MAPK α): 15 nM
Structure (SMILES): COc1c(NC(=O)N[C@@H]2Cc3ccccc3[C@@H]2O)cc(C(C)(C)C)cc1[C@@H](O)C(F)(F)F [Compound 46b, 1-(5-tert-butyl-2-methoxy-3-((R)-2,2,2-trifluoro-1-hydroxyethyl)phenyl)-3-((1S,2R)-1-hydroxy-2,3-dihydro-1H-indene-2-yl)urea]
suppression ratio of auricular swelling, oral administration ([1]; 30 mg/kg oral 1 hour before induction): 37.7% | suppression ratio of auricular swelling, auricular application ([1]; 20 μL of 0.5 w/v % solution on auricle 1 hour before induction): 49.2% | pain threshold (sec), plantar test, compared to solvent-administered group [2]: significantly elevated | pain threshold (sec), plantar test, compared to solvent-administered group [3]: significantly elevated
